Columns and labels:
[1] = test system: vascular smooth muscle cells (VSMCs); assay: Vascular calcification induced by Pi 5 mM in VSMCs, extracellular calcium deposition on day 7; assay type: cell-based; conditions: rat VSMCs; for calcification inhibition: compared with 5 mM Pi in the same solvent; for effect of the individual compounds on the calcification (dose-response curves): Pi 5 mM
Description: The experimental model consists of vascular smooth muscle cells (VSMCs) removed from the aorta of a rat (primary cells) and stimulated for 7 days with Na3PO4 (Pi) 5 mM to induce them to […]. […] On day 7, the effect of the treatment on the extracellular calcium deposition was analyzed both by a qualitative histological method (staining of calcium deposits by Alizarin Red Staining), and by a quantitative method, by measuring the amount of […] calcium by a spectrophotometric technique (FIG. 1). Each type of experiment was repeated at least 3 times and each condition was tested at least three times within every single experiment.

[2] = test system: human aortic cell cultures; assay: Calcification induced by inorganic phosphate (Pi, 2 mM) in human aortic cell cultures, Alizarin Red Staining quantification; assay type: cell-based; conditions: products at 0.03%; for % VAR vs CTR+: average % variation of ARS vs positive control (Pi 2 mM only); for % VAR vs CTR−: average % variation of ARS vs untreated negative control; for % VAR vs CTR− / ARS mM average: Pi 2 mM; for ARS mM average: human aortic cells, 7 days, ARS quantity proportional to calcium content
Description: (II) Similarly to what has been stated for the in vitro (I) study, the efficacy was tested of the composition according to the present invention comprising sucrosomial iron pyrophosphate (SRM) (Sucrosomiale®; Sucrosomial®), vitamin K2 menaquinone-7 (MK-7) and magnesium carbonate (MC) (composition called TRIO in Table 1 and FIG. 10) on the slowing of the progression of the vascular calcification induced by high levels of sodium phosphate (Pi) in a vascular cell culture and compared with the efficacy of the single components of the TRIO composition.
In particular, to execute the efficacy test, human aortic cell cultures were treated for 7 days with inorganic phosphate (Pi, 2 mM), a known calcifying agent, to induce mineralization of the cells, and with the products subjected to a concentration test 0.03% (% g of compound under examination/solution volume) and subsequently treated with the compound compositions under examination. At the end of the experimental treatment, the calcium content was quantified by a colorimetric assay, i.e. staining of the calcium deposits by Alizarin Red Staining (ARS).
The experimental design specified: untreated cell cultures (negative control CTR−), cell cultures (positive control CTR+) treated only with the calcifying agent (Pi) and cell cultures in which a calcification event was induced experimentally by the calcifying agent (Pi) and subsequently treated with the compositions/compounds under examination (0.03% concentrations) such as TRIO composition, only sucrosomial iron pyrophosphate (SRM) (Sucrosomiale®; Sucrosomial®), only vitamin K2 menaquinone-7 (MK-7) and only magnesium carbonate (MC).
The Alizarin Red Staining S (ARS) is an anthraquinone staining solution that is widely used to evaluate calcium deposits in cell cultures. Alizarin Red Staining (ARS) is versatile because the dye can be easily extracted from the coloured single layer of the cells and can be promptly dosed. The ARS quantification assay provides a sensitive tool for partial quantification of calcium in a cell matrix. Mineralization is assessed by extracting the low pH calcified mineral, neutralization with ammonia hydroxide and 405 nm colorimetric detection.
In the present study, the cells subjected to the different aforementioned treatments were fixed for ARS and the deposition of mineral was quantified by a commercially available colorimetric kit. For this purpose, a calibration curve was plotted with known and increasing ARS concentrations.
The results are set out in Table 1 and FIG. 10 as an ARS quantity that is directly proportional to the calcium content in the different experimental treatments (average value±st. dev.) and as average % variation from the controls. The data obtained from the different experimental groups were analyzed statistically and compared with T-test. The significant values in FIG. 10 compared with the positive control (p<0.05) are marked with an asterisk (*).

Row | Compound | calcification inhibition ([1]; in ethanol) [%] | calcification inhibition ([1]; in ethyl acetate) [%] | % VAR vs CTR+ [2] [%] | % VAR vs CTR− [2] [%] | ARS mM average [2] [mM] | effect of the individual compounds on the calcification (dose-response curves) [1]
1 | CC(C)=CCC/C(C)=C/CC/C(C)=C/CC/C(C)=C/CC/C(C)=C/CC/C(C)=C/CC/C(C)=C/CC1=C(C)C(=O)c2ccccc2C1=O [9_MK7, menaquinone-7] | 20 | 15 to 30 | 58.0 | 34.7 | 0.100 | –
2 | O=C([O-])[O-].[Mg+2] [11_MC, magnesium carbonate] | – | – | −49.6 | 61.7 | 0.120 | –
3 | [Cl-].[Cl-].[Mg+2] [MgCl2, magnesium chloride] | – | – | – | – | – | powerful calcification inhibitors, with a dose-dependent protective effect
4 | iron (III) pyrophosphate [Fe4(P2O7)3] | – | – | – | – | – | powerful calcification inhibitors, with a dose-dependent protective effect
